# Read-outs that look alike come from different tables or passages of the source.
# Legend:
# [1] = Solubility in biorelevant buffers; format: physicochemical
# Experimental: The ionization constant (pKa), octanol-pH 7.4 buffer partition coefficient (Log D7.4), solubility in biorelevant buffers (FaSSIF-V2, FeSSIF-V2, FaSSGF and pH 7.4 phosphate buffered saline (PBS)) and Caco-2 permeability were determined according to previously published methods ([10]).
# In vivo pharmacokinetics = assay: In vivo pharmacokinetics; parameters: species or system male beagle dogs
# Experimental: Additional PK studies were also conducted by WuXi AppTec Co, Ltd (Shanghai, China) according to protocols reviewed and approved by DNDi. […] IV and oral formulations for rats, mice and hamsters were the same as described above. For dogs, the IV dose was administered in saline containing 2% DMSO and 3% Solutol HS-15 and the oral formulation was as described above. Blood was sampled up to 48 h post-dose into vials containing potassium EDTA as an anticoagulant, proteins were precipitated with acetonitrile and plasma was separated and assayed by LC-MS.
# Single dose pharmacokinetic parameters (clearance, volume of distribution and half-life) were initially estimated using non-compartmental methods and oral bioavailability was calculated using the ratio of the dose corrected AUC after oral dosing relative to that after IV administration. Nominal doses were used in the calculations unless the measured dose differed by more than 15% from the nominal dose, in which case the measured dose was used. Where a full concentration versus time profile was obtained from a single animal, parameters were estimated for each animal and mean and standard deviations calculated. In the case of mice where sparse sampling was used with multiple animals per time point, the data analysis was conducted using the mean profile.
# δ (DOP) = biological target: T1, δ (DOP) (Homo sapiens, UniProt P41143); assay: In vitro pharmacology panel (Eurofins); format: binding; details: read-out: activity (% of DMSO control)
# T1 construct: purchased Eurofins (Cerep/DiscoverX SafetyScreen44 in vitro pharmacology panel)
# Excerpt: (§1) Listed values represent the percent change relative to the DMSO control activity. When an IC50 had to be determined, eight different concentrations were included. All values are the mean of assay readout duplicates.
# 5-HT transporter = biological target: T2, 5-HT transporter (Homo sapiens, UniProt P31645); assay: In vitro pharmacology panel (Eurofins); format: binding; details: read-out: activity (% of DMSO control)
# T2 construct: purchased Eurofins (Cerep/DiscoverX SafetyScreen44 in vitro pharmacology panel)
# Excerpt: as §1
# H2 = biological target: T3, H2 (Homo sapiens, UniProt P25021); assay: In vitro pharmacology panel (Eurofins); format: binding; details: read-out: activity (% of DMSO control)
# T3 construct: purchased Eurofins (Cerep/DiscoverX SafetyScreen44 in vitro pharmacology panel)
# Excerpt: as §1
# V1 a = biological target: T4, V1 a (Homo sapiens, UniProt P37288); assay: In vitro pharmacology panel (Eurofins); format: binding; details: read-out: activity (% of DMSO control)
# T4 construct: purchased Eurofins (Cerep/DiscoverX SafetyScreen44 in vitro pharmacology panel)
# Excerpt: as §1
# 5-HT1A = biological target: T5, 5-HT1A (Homo sapiens, UniProt P08908); assay: In vitro pharmacology panel (Eurofins); format: binding; details: read-out: activity (% of DMSO control)
# T5 construct: purchased Eurofins (Cerep/DiscoverX SafetyScreen44 in vitro pharmacology panel)
# Excerpt: as §1
# D2S = biological target: T6, D2S (Homo sapiens, UniProt P14416); assay: In vitro pharmacology panel (Eurofins); format: binding; details: read-out: activity (% of DMSO control)
# T6 construct: purchased Eurofins (Cerep/DiscoverX SafetyScreen44 in vitro pharmacology panel)
# Excerpt: as §1
# M1 = biological target: T7, M1 (Homo sapiens, UniProt P11229); assay: In vitro pharmacology panel (Eurofins); format: binding; details: read-out: activity (% of DMSO control)
# T7 construct: purchased Eurofins (Cerep/DiscoverX SafetyScreen44 in vitro pharmacology panel)
# Excerpt: as §1
# H1 = biological target: T8, H1 (Homo sapiens, UniProt P35367); assay: In vitro pharmacology panel (Eurofins); format: binding; details: read-out: activity (% of DMSO control)
# T8 construct: purchased Eurofins (Cerep/DiscoverX SafetyScreen44 in vitro pharmacology panel)
# Excerpt: as §1
# M2 = biological target: T9, M2 (Homo sapiens, UniProt P08172); assay: In vitro pharmacology panel (Eurofins); format: binding; details: read-out: activity (% of DMSO control)
# T9 construct: purchased Eurofins (Cerep/DiscoverX SafetyScreen44 in vitro pharmacology panel)
# Excerpt: as §1
# N neuronal α4β2 = biological target: T10, N neuronal α4β2 (Homo sapiens, UniProt P17787+P43681); assay: In vitro pharmacology panel (Eurofins); format: binding; details: read-out: activity (% of DMSO control)
# T10 construct: purchased Eurofins (Cerep/DiscoverX SafetyScreen44 in vitro pharmacology panel)
# Excerpt: as §1
# in vivo = details: both, Wistar Han, rat, po
# Excerpt: Parameters monitored included morbidity/mortality, clinical signs, body weight, food consumption, hematology and serum clinical chemistry. Main study animals were killed on the day after the last dose and necropsied. Selected organs were weighed. Organ/tissue samples were fixed and preserved at necropsy. Following the macroscopic examination, selected organs/tissues were examined histopathologically and compared to the control group. Satellite animals were sampled for toxicokinetics on days 1 and 14, at various time-points after treatment.
# [2] = In vitro metabolism, liver microsomes; format: in vitro ADME, mouse
# Experimental: Compounds were spiked into microsomal matrix prepared in 0.1 M pH 7.4 phosphate buffer containing magnesium chloride (final concentration of 3.3 mM), equilibrated for 5-10 min at 37°C. The reaction was initiated with the addition of freshly prepared solution of NADPH (final 1.3 mM). Control samples without co-factor were included for comparison. Aliquots of the reaction mixtures were taken periodically over 60 min and quenched with acetonitrile containing internal standards (metolazone and diazepam). Quenched samples were maintained on ice for approximately 20-30 min, centrifuged (for 5 min) and the supernatant was analyzed by LC-MS.
# In vitro intrinsic clearance (CLint, μL/min/mg or μL/min/10^6 cells) values were calculated from the apparent first order degradation rate constant divided by the microsome concentration or the hepatocyte cell number (10^6 viable cells/mL). In vitro CLint values were then divided by the fraction unbound in the in vitro test system (to give CLint,u) and scaled to in vivo values (mL/min/kg) using published physiological scaling factors ([28]). Blood clearance in each species was then calculated using the well-stirred model of hepatic extraction (equation 2) where Q is the hepatic blood flow and fu,blood is calculated from fu,plasma/B:P: [2] PredictedCLblood=Q x fu,blood x CLint,u/Q+fu,blood x CLint,u
# Blood clearance values were converted to plasma clearance by multiplying by the B:P.
# HepG2 cells = assay: MitoXpress oxygen consumption assay; format: cell-based
# Experimental: Briefly, HepG2 cells were seeded in 96-well plates in 100 μL of complete media and incubated overnight in an incubator set to maintain approximately (37°C and 5% CO2). […] Oligomycin (5 μM), FCCP (1 μM), or antimycin A or antimycin A/Rotenone (1 μM) were added to additional wells as positive controls. Prewarmed (37°C) 100% mineral oil (100 μL) was immediately added to all wells. The assay plates were transferred to a Perkin Elmer Wallac VICTOR3 System reader for time-resolved fluorescence measurements. Fluorescence (excitation 340 nm/emission 642 nm) was measured every two minutes for approximately 1-2 hrs (or until signal plateau/saturation is reached).
# The dual-read time-resolved (T1 = 30 μs and T2 = 70 μs) fluorescence intensity readings (R1 and R2) from the Perkin Elmer Wallac VICTOR3 system (Perkin Elmer) were converted to lifetime fluorescence values as per guidelines detailed in the Agilent MitoXpress Xtra Oxygen Consumption Assay Manual. Calculation of the slope translates to oxygen consumption rate (OCR). Oxygen consumption rate was multiplied by 60 to determine the slope/hour for each assay well.
# [3] = dogs, single oral 90 mg/kg, two individual dogs, 90 mg/kg
# [4] = male, beagle, dog, plasma, dogs, single oral 30 mg/kg
# [5] = male, beagle, dog, plasma, dogs, single oral 90 mg/kg
# [6] = male, beagle, plasma, Dog, oral 5.0 mg/kg
# T7 sequence (P11229 whole entry): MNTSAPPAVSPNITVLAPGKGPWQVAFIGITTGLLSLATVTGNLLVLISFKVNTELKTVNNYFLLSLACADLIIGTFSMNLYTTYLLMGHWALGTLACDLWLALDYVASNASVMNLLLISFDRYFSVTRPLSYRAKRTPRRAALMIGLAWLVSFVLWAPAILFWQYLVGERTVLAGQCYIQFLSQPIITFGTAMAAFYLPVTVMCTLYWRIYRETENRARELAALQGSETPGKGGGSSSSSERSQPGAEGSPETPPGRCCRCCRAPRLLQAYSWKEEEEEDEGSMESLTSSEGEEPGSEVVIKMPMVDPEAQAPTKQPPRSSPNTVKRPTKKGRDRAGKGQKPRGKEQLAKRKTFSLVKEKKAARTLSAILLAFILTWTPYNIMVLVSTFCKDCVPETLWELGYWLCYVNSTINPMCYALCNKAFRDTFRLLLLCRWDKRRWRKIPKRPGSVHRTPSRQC
# T2 sequence (P31645 whole entry): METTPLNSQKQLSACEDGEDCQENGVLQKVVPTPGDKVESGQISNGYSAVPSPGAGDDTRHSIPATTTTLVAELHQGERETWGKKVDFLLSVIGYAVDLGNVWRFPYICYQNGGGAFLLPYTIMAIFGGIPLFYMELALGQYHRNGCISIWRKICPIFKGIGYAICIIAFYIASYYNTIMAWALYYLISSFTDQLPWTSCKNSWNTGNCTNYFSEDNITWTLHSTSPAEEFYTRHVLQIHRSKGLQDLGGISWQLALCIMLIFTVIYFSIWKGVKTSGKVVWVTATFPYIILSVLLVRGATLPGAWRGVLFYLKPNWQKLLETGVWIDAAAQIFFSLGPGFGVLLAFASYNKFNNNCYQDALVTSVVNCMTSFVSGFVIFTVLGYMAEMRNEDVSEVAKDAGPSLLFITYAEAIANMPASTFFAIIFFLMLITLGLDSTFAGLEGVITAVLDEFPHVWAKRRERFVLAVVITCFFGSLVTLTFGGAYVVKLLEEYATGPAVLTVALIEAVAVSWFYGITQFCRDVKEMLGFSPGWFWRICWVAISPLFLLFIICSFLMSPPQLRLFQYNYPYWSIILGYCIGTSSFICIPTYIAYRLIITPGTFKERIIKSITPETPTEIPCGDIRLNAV
# T5 sequence (P08908 whole entry): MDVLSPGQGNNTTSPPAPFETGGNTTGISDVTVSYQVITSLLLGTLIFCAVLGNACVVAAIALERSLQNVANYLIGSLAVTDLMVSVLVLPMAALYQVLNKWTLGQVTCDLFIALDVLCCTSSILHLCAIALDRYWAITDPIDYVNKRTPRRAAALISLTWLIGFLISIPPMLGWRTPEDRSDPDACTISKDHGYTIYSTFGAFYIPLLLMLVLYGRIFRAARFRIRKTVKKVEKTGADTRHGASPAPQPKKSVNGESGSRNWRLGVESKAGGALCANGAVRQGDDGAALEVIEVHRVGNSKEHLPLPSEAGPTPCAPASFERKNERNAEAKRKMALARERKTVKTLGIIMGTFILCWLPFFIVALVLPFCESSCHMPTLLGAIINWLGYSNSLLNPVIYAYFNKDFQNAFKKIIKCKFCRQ
# T10 sequence (P43681 29-627 limits assumed): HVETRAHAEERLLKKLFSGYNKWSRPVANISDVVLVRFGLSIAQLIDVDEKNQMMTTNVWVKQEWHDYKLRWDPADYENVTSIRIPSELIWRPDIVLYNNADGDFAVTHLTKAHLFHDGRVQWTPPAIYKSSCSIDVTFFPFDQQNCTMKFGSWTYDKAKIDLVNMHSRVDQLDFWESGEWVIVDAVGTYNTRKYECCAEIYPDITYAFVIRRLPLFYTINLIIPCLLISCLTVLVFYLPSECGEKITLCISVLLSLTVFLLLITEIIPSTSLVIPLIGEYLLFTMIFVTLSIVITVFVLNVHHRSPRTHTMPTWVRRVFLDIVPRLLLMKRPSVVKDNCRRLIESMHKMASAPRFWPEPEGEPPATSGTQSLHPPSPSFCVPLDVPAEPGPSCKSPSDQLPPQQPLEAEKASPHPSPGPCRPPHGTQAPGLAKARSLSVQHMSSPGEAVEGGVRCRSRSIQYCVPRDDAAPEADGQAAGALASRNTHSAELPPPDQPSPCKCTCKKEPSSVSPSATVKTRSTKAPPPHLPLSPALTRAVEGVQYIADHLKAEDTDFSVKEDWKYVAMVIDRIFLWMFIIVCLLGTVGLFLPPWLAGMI
# T10 sequence (P17787 26-502): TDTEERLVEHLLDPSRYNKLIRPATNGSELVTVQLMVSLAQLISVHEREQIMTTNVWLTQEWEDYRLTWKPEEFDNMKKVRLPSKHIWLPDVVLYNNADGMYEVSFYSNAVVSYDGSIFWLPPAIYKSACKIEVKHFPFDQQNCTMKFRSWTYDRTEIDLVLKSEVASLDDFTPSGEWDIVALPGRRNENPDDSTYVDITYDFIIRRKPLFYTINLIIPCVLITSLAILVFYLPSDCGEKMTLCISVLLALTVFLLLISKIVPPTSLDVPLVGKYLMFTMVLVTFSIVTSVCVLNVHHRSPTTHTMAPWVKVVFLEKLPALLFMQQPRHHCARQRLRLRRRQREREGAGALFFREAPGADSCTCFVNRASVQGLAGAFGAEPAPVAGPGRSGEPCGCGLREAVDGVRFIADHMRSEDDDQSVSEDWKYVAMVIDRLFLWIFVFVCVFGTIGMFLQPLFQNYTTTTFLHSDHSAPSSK
# T1 sequence (P41143 whole entry): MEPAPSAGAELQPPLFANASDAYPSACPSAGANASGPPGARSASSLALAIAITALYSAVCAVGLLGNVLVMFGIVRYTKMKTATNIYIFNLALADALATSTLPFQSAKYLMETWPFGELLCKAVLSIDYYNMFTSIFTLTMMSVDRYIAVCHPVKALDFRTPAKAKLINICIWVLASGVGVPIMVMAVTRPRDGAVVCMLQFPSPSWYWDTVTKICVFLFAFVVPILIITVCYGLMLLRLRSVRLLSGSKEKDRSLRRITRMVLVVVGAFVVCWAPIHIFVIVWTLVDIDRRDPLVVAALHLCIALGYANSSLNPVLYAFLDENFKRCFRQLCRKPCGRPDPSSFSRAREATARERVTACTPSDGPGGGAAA
# T3 sequence (P25021 whole entry): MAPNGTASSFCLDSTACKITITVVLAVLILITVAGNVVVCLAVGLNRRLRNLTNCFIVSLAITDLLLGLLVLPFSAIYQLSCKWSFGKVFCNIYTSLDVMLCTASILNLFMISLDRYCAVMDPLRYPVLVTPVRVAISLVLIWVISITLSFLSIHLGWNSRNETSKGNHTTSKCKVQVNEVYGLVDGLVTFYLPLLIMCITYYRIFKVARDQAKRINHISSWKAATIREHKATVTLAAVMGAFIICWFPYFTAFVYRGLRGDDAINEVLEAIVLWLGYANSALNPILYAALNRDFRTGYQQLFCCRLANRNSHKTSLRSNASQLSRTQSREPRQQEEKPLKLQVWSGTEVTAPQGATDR
# T9 sequence (P08172 whole entry): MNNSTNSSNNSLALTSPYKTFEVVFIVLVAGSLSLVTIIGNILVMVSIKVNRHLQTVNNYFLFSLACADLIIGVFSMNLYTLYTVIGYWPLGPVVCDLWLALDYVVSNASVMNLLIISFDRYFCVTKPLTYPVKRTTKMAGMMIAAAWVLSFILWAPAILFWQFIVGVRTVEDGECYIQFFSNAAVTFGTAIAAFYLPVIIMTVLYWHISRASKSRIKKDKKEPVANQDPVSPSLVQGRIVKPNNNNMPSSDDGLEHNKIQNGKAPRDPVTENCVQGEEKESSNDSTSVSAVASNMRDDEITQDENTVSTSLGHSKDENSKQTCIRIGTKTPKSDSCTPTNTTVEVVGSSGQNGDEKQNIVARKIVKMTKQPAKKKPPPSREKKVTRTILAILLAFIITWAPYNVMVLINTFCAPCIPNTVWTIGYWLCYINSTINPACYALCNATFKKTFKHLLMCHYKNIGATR
# T6 sequence (P14416 1-414 isoform P14416-2): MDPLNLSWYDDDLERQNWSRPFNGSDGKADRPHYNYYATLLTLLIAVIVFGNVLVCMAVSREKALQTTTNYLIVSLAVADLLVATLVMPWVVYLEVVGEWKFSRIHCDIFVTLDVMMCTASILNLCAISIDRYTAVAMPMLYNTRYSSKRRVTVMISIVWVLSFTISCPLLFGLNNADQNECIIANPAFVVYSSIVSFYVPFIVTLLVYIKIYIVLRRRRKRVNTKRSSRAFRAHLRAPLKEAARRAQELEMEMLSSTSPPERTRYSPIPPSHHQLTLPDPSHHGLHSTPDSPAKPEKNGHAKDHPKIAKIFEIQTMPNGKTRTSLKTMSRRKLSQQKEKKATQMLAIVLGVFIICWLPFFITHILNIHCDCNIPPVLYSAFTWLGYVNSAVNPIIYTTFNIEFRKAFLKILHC
# T4 sequence (P37288 whole entry): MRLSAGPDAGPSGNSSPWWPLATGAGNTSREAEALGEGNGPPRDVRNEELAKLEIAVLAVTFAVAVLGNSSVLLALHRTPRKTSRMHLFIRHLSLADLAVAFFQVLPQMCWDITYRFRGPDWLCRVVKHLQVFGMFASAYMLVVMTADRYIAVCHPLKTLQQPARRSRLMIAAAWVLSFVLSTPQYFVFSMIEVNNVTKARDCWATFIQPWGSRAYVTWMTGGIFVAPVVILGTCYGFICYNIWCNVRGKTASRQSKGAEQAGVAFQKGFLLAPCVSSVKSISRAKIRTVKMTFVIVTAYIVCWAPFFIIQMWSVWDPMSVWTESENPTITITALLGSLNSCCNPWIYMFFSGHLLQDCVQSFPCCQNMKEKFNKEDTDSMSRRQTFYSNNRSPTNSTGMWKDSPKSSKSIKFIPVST
smiles,measurement,setting,value
Cc1[nH]c2nc(N)nc(C)c2c1-c1ccc(C#N)c2c1OCO2 [DNDI-6174],solubility,"[1]; FaSSGF, pH 1.6, fassgf or other biorelevant, pH 1.6, read-out: Solubility FaSSGF",1200 µg/mL
same,solubility,"[1]; FaSSIF-V2, pH 6.5, fassif, pH 6.5, read-out: Solubility FaSSIF",11 µg/mL
same,solubility,"[1]; FeSSIF-V2, pH 5.8, fessif, pH 5.8, read-out: Solubility FeSSIF",54 µg/mL
same,Solubility FaSSGF,[1]; pH 1.6,1190 µg/mL
same,solubility,"[1]; phosphate buffered saline (PBS), pH 7.4, aqueous buffer, pH 7.4, read-out: Solubility PBS",6.5 µg/mL
same,AUC0-∞,In vivo pharmacokinetics; [3],533 µg·h/mL
same,T1/2,In vivo pharmacokinetics; [3],20.9 h
same,half-life,"In vivo pharmacokinetics; male, beagle, dog, plasma, iv, 1 mg/kg, Dog, intravenous 1.0 mg/kg, read-out: Apparent t1/2 (converted)",9.84 h
same,AUC(0-inf),"In vivo pharmacokinetics; male, beagle, dog, plasma, iv, 1 mg/kg, Dog, intravenous 1.0 mg/kg, read-out: Plasma AUC0-inf",5 µg·h/mL
same,clearance,"In vivo pharmacokinetics; male, beagle, dog, plasma, iv, 1 mg/kg, Dog, intravenous 1.0 mg/kg, read-out: Plasma CL",3.5 mL/min/kg
same,clearance,"In vivo pharmacokinetics; male, beagle, dog, plasma, iv, 1 mg/kg, Dog, read-out: Measured in vivo CLplasma",3.4 mL/min/kg
same,half-life,"In vivo pharmacokinetics; male, beagle, dog, plasma, po, 5 mg/kg, Dog, oral 5.0 mg/kg, read-out: Apparent t1/2 (converted)",6.9 h
same,AUC(0-inf),"In vivo pharmacokinetics; male, beagle, dog, plasma, po, 5 mg/kg, Dog, oral 5.0 mg/kg, read-out: Plasma AUC0-∞",18.5 µg·h/mL
same,AUC(0-inf),"In vivo pharmacokinetics; male, beagle, dog, plasma, po, 30 mg/kg, dogs, single oral 30 mg/kg, read-out: AUC0-∞",255 µg·h/mL
same,half-life,"In vivo pharmacokinetics; male, beagle, dog, plasma, po, 30 mg/kg, dogs, single oral 30 mg/kg, read-out: T1/2 (converted)",14.4 h
same,AUC(0-inf),"In vivo pharmacokinetics; male, beagle, dog, plasma, po, 90 mg/kg, dogs, single oral 90 mg/kg, two individual dogs, read-out: AUC0-∞",613 µg·h/mL
same,half-life,"In vivo pharmacokinetics; male, beagle, dog, plasma, po, 90 mg/kg, dogs, single oral 90 mg/kg, two individual dogs, read-out: T1/2 (converted)",14.2 h
same,Cmax,In vivo pharmacokinetics; [4],9590 ng/mL
same,Tmax,In vivo pharmacokinetics; [4],3.33 h
same,Cmax,In vivo pharmacokinetics; [5],19100 ng/mL
same,Tmax,In vivo pharmacokinetics; [5],10.7 h
same,Vd,"In vivo pharmacokinetics; male, beagle, plasma, Dog, intravenous 1.0 mg/kg, read-out: Plasma Vss",2.5 L/kg
same,Cmax,In vivo pharmacokinetics; [6],2020 ng/mL
same,Tmax,In vivo pharmacokinetics; [6],4 h
same,bioavailability,In vivo pharmacokinetics; [6],90%
same,remaining activity at 10 µM,δ (DOP),102%
same,remaining activity at 10 µM,5-HT transporter,69.9%
same,remaining activity at 10 µM,H2,120%
same,remaining activity at 10 µM,V1 a,101%
same,remaining activity at 10 µM,5-HT1A,107%
same,remaining activity at 10 µM,D2S,77.6%
same,remaining activity at 10 µM,M1,91.5%
same,remaining activity at 10 µM,H1,91.8%
same,remaining activity at 10 µM,M2,92.9%
same,remaining activity at 10 µM,N neuronal α4β2,100%
same,NOAEL at 14 days,in vivo,80 mg/kg
same,Microsome predicted in vivo CLplasma,[2]; Mouse,12 mL/min/kg
same,In vitro Microsome CLint,"[2]; Mouse, 2 independent experiments",13 ± 0.38 µL/min/mg
same,microsomal CLint at 0.5 µM,"[2]; mouse, liver microsomes, pH 7.4, Mouse, 2 independent experiments, read-out: In vitro Microsome CLint",17 ± 0.59 µL/min/mg
same,concentrations at which oxygen consumption was reduced,HepG2 cells,≥ 66 µM
same,margin of MitoExpress no-effect concentration over free concentration at predicted human therapeutic plasma Cmax,HepG2 cells,approximately 57 fold
same,maximum reduction of oxygen consumption,HepG2 cells; 200 μM (highest tested),28%
